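Five concentrations, 48 hours, 96-well plates. At the GI50, growth is halved.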 The source made the active and inactive calls. Rule as the data show it: active = GI50 up to about 1.1 µM and inactive = higher.
Assays:
Experiment in all cases: growth of human tumour cells (NCI), 48 h
[1] = tested on: MDA-MB-231
[2] = tested on: UACC-62
[3] = tested on: ACHN
[4] = tested on: UACC-257
[5] = tested on: CCRF-CEM
[6] = tested on: A549
[7] = tested on: SNB-75
[8] = tested on: SK-MEL-2
[9] = tested on: OVCAR-8
[10] = tested on: DU-145
[11] = tested on: HCC 2998
[12] = tested on: SK-MEL-5
[13] = tested on: K562
[14] = tested on: OVCAR-3
[15] = tested on: SF-295
[16] = tested on: TK-10
[17] = tested on: SF-539
[18] = tested on: HOP-92
[19] = tested on: SK-OV-3
[20] = tested on: HL-60

Measured: GI50

Cc1cc(C)nc(NS(=O)(=O)c2ccc(NC(=O)c3c4ccccc4nc4ccccc34)cc2)n1
inactive: [1] > 100 µM | [2] > 100 µM | [3] 84.7 µM | [4] > 100 µM | [5] > 100 µM | [6] > 100 µM | [7] > 100 µM | [8] > 100 µM | [9] 47.9 µM | [10] 93.1 µM | [11] > 100 µM | [12] 38.1 µM | [13] > 100 µM | [14] 56.9 µM | [15] > 100 µM | [16] 82.2 µM | [17] > 100 µM | [18] > 100 µM | [19] > 100 µM

CCCn1c(C23CC4CC(CC(C4)C2)C3)nc2ccc(Cl)cc2c1=O
inactive: [1] > 100 µM | [2] 25.9 µM | [3] 21.2 µM | [4] 33.2 µM | [5] 45.5 µM | [6] 31.2 µM | [20] 21.6 µM | [8] 47.1 µM | [9] 44.4 µM | [10] 27.9 µM | [12] 41.3 µM | [13] 43.6 µM | [14] 49 µM | [15] 46.6 µM | [16] 48.2 µM | [17] > 100 µM | [18] 42.8 µM | [19] 49.5 µM

COC(=O)c1c2n(c3ccccc13)C[C@H]1OC(C)(C)O[C@@H]21
inactive: [1] > 100 µM | [2] > 100 µM | [3] > 100 µM | [4] > 100 µM | [5] > 100 µM | [6] > 100 µM | [7] > 100 µM | [8] > 100 µM | [9] > 100 µM | [10] > 100 µM | [11] > 100 µM | [12] > 100 µM | [13] > 100 µM | [14] > 100 µM | [15] > 100 µM | [16] > 100 µM | [17] > 100 µM | [18] > 100 µM | [19] > 100 µM

CC(=O)[C@]12OC(=O)C3=C1[C@H](CC[C@@H]3C)[C@@H](C)C[C@H]2C=C(C)C
inactive: [1] 8.2 µM | [2] 5.68 µM | [3] 8.11 µM | [4] 9.75 µM | [5] 9.44 µM | [6] 7.48 µM | [20] 7.71 µM | [8] 7.82 µM | [9] 8.49 µM | [10] 8.09 µM | [12] 5.52 µM | [13] 5.6 µM | [14] 7.31 µM | [15] 6.4 µM | [17] 9.14 µM | [18] 1.43 µM | [19] 11 µM

COc1ccccc1/C=C/c1nc2ccccc2o1
inactive: [1] > 10 µM | [2] > 10 µM | [3] > 10 µM | [4] > 10 µM | [5] > 10 µM | [6] > 10 µM | [7] > 10 µM | [8] > 10 µM | [9] > 10 µM | [10] > 10 µM | [11] > 10 µM | [12] > 10 µM | [13] > 10 µM | [14] > 10 µM | [15] > 10 µM | [16] > 10 µM | [17] > 10 µM | [18] 6.19 µM | [19] > 10 µM

Cc1cnc2nc(-c3sccc3C)cc(O)c2c1
inactive: [1] 18.1 µM | [2] 2.59 µM | [3] 8.85 µM | [4] 8.38 µM | [5] 1.6 µM | [6] 3.96 µM | [7] 4.32 µM | [8] 3.4 µM | [9] 4.06 µM | [10] 4.74 µM | [11] 6.07 µM | [12] 1.23 µM | [13] 5.04 µM | [14] 3.13 µM | [15] 2.26 µM | [16] > 33.7 µM | [17] 5.81 µM | [18] 97.3 µM | [19] 4.03 µM

From ChEMBL document CHEMBL1201862, “PubChem BioAssay data set” (2004)
